Laboratory results taken from patent US20260176260A1, “DUAL RAF AND TUBULIN INHIBITORS AND METHODS OF USE THEREOF” (Deciphera Pharmaceuticals, LLC, priority 2023, published 2026).
Like-named read-outs stand apart in the source and are kept apart here.

Experiments:
Pa16c cells = assay: Pa16c cell proliferation assay (resazurin); type: cell-based; settings: Table 2, inhibition of cell proliferation
Method in brief: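 Pa16c cells, 750 per well in DMEM with 10% FBS, exposed to serially diluted compound in triplicate for 67-72 h at 37 °C. Resazurin then added for a further 18-24 h, fluorescence read at Ex 540/Em 600 nm, and IC50 calculated.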

[1] = tested on: tubulin polymerization in HCT-116 cells; assay: Cellular tubulin polymerization assay (pellet/supernatant a-tubulin, HCT-116 cells); type: cell-based; settings: Table 3, HCT-116 cells; read-out: Tubulin Cellular
Procedure: HCT-116 cells (catalog #CCL-247) are obtained from the American Type Culture Collect (ATCC, Manassas, VA). Briefly, cells are grown in McCoy's 5A supplemented with 10% characterized fetal bovine serum (Invitrogen, Carlsbad, CA) and 1% Penicillin/Streptomycin/L-Glutamine at 37° C., 5% CO2, and 95% humidity. Cells are expanded until reaching 70-95% confluency at which point they are sub-cultured or harvested for assay use. 450000 cells are added per well in 1500 μL complete growth medium in a tissue culture treated, 12-well plate. Plates are incubated for 18 to 24 h at 37° C., 5% CO2, and 95% humidity. At the end of the incubation, 2000 μL of base culture media is added to each well, followed by a serial dilution of compound. Plates are incubated for an additional 1 h at 37° C., 5% CO2, and 95% humidity. Lysates are generated by the addition of 100 μL Lysis and Microtubule Stabilization Buffer 1 (LMS01, Cytoskeleton Inc, Denver, CO) supplemented with GTP (BST06, Cytoskeleton Inc), ATP (BSA04, Cytoskeleton Inc), and Protease Inhibitor Cocktail Stock (PIC02, Cytoskeleton Inc). Cells are scraped off wells using a rubber cell scraper and collected in a clean 96-well plate. Lysates are centrifuged at 1000×g, 37° C. for 10 min and supernatant fraction is placed into an additional 96-well plate. The remaining pellet fraction is reconstituted in 100 μL LMS01 buffer and sonicated for 10 min. Pellet and Supernatant fractions are probed for a-tubulin via western blot analysis on the Jess System or equivalent (Bio-techne, Minneapolis, MN). Data is analyzed using Prism software (Graphpad, San Diego, CA) to calculate IC50 values.

C-Raf kinase = target: T1, C-Raf kinase (Homo sapiens, UniProt P04049, Y340D/Y341D); assay: Biochemical assay for C-Raf (coupled pyruvate kinase/lactate dehydrogenase); settings: read-out: CRAF
T1 construct: C-Raf residues 306-end; Y340D, Y341D with N-; purchased Sigma
T1 sequence (P04049 307-648 Y340D/Y341D): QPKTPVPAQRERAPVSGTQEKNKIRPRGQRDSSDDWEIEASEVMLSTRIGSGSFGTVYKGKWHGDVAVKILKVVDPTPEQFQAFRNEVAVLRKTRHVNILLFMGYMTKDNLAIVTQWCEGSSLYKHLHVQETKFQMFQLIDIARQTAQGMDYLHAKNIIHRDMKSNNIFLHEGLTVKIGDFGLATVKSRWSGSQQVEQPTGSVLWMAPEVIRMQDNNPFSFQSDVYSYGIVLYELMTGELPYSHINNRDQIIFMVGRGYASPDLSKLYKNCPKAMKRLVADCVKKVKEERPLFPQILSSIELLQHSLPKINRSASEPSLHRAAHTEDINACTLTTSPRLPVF

MiaPaca-2 cells = assay: MiaPaca-2 cell proliferation assay (resazurin); type: cell-based; settings: read-out: MiaPaca-2
[2] = Table 1, inhibition of biochemical activity
[3] = Homo sapiens, MIA PaCa-2, Table 2, inhibition of cell proliferation

| IC50 [1] | IC50 (C-Raf kinase; [2]) | IC50 (C-Raf kinase; Table 3) | IC50 (MiaPaca-2 cells; [3]) | IC50 (MiaPaca-2 cells; Table 3) | SMILES | IC50 (Pa16c cells) |
| --- | --- | --- | --- | --- | --- | --- |
| 0.1 to 0.5 µM | < 0.1 µM | < 0.1 µM | 0.1 to 0.5 µM | 0.1 to 0.5 µM | CNC(=O)c1cc(-c2cc(-c3cc(NC(=O)c4cc(C(F)(F)F)cnn4)ccc3C)cc(C)n2)ccn1 [Example 2, N,6-dimethyl-4-(2-methyl-5-(5-(trifluoromethyl)pyridazine-3-carboxamido)phenyl)-[2,4′-bipyridine]-2′-carboxamide] | 0.5 to 1 µM |
| 0.1 to 0.5 µM | < 0.1 µM | < 0.1 µM | 0.1 to 0.5 µM | 0.1 to 0.5 µM | CNC(=O)c1cc(-c2cc(-c3cc(NC(=O)c4cc(C(F)(F)F)cnn4)ccc3C)ccn2)ccn1 [Example 9] | 0.1 to 0.5 µM |
| < 0.1 µM | < 0.1 µM | < 0.1 µM | < 0.1 µM | < 0.1 µM | CNC(=O)c1cc(-c2cc(-c3cc(NC(=O)c4cc(C(F)(F)F)cnn4)ccc3C)cc(NCCO)n2)ccn1 [Example 18] | < 0.1 µM |
| 0.1 to 0.5 µM | < 0.1 µM | < 0.1 µM | 0.1 to 0.5 µM | 0.1 to 0.5 µM | CNC(=O)c1cc(-c2cc(-c3cc(NC(=O)c4cc(C5CC5)cnn4)ccc3C)ccn2)ccn1 [Example 26] | 0.1 to 0.5 µM |
| 0.1 to 0.5 µM | < 0.1 µM | < 0.1 µM | 0.1 to 0.5 µM | 0.1 to 0.5 µM | CNC(=O)c1cc(-c2cc(-c3cc(NC(=O)c4cc(C5CC5)cnn4)ccc3C)cc(NCCO)n2)ccn1 [Example 27] | < 0.1 µM |
